Experimental findings from PMC3057979 (PLoS ONE, 2011) are described below.

The subject of assay [1] is CD4^+ T cells of C. burnetii RSA 439 infected C57BL/6 mice. The assay is classed as cell-based.
Assay [2] has as its system CD4^+ T cells of recombinant protein vaccinated C57BL/6 mice. The assay is classed as cell-based.
The subject of assay [3] is CD4^+ T cells of PI-WCV vaccinated C57BL/6 mice. Particulars: 20 h.
The target of assay [4] is T1, H-2 I-A^b (purified IA^b MHC class II) (Mus musculus, UniProt P14434+P14483).
T1 construct: endogenous in cells; host or cells: mouse B-cell lymphoma LB27.4
T1 sequence (P14434 24-256): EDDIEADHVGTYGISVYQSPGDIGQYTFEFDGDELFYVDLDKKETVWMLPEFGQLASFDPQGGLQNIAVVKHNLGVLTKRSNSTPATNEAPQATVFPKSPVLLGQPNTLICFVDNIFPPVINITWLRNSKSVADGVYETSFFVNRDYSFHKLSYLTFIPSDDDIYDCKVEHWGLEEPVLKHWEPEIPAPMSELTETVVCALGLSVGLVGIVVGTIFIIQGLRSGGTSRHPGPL
T1 sequence (P14483 28-265): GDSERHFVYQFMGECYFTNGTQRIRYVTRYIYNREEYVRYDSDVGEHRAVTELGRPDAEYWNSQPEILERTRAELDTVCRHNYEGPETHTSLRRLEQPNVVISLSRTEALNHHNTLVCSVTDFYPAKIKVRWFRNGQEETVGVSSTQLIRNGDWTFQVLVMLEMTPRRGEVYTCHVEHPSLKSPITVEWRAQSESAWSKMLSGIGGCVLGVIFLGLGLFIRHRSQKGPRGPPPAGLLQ
As to the kind of experiment: biochemical. The assay is classed as binding.

For assay [5], the system named is IgG antibody production against CBU 0383, CBU 1157, CBU 1910. Details: species or system C57BL/6 mice. Particulars: mouse, in vivo.

Where no end group is shown, it is not given here.

In assay [1], AKKLFNDPASPVAGN [CBU191081-95] gave an SI-Infection of 0.79±0.44. Also, the SI-rAgs in assay [2] came to 4.8. In addition, in assay [3], the SI-WCV vaccination amounted to 0.63±0.31.
In assay [1], DLPAAIVDAIAPQEG [CBU1645138-152] registered an SI-Infection of 0.67±0.34. Moreover, the SI-rAgs in assay [2] is reported as 3. In assay [3], this sequence came in with an SI-WCV vaccination of 0.80±0.62.
Consider DLRYHAPIYGAVHPR [CBU 1157_177–191], for which the IC50 (commonly the concentration that gives 50% inhibition) in assay [4] was 193 nM. The sequence also registered an SI-WCV vaccination in assay [3] of 3.67±1.53.
Take ENAKKLFNDPASPVA [CBU191079-93]: the SI-Infection in assay [1] is reported as 0.93±0.35. Also, the SI-rAgs in assay [2] came out at 5.6. Further, the SI-WCV vaccination in assay [3] turned out to be 0.93±0.84.
On to HYLVNHPEVLVEASQ [CBU 1910_45–59], for which the IC50 in assay [4] was 293 nM. This sequence also gave an SI-WCV vaccination in assay [3] of 23.77±13.0.
With IRNKLKIQATINNAK [CBU038398-112], the SI-Infection in assay [1] amounted to 0.43±0.57. Moreover, the SI-rAgs in assay [2] was 2.22. Moreover, the SI-WCV vaccination in assay [3] was found to be 1.07±0.51.
In assay [1], IRRLVGSFPAEERIG [CBU1645270-284] yielded an SI-Infection of 1.53±0.74. The SI-rAgs in assay [2] is reported as 2.7. Besides, in assay [3], the SI-WCV vaccination came out at 3.10±1.15.
Sequence KLFNDPASPVAGNPH [CBU 1910_83–97] showed an IC50 in assay [4] of 351 nM. This sequence also had an SI-WCV vaccination in assay [3] of 3.67±1.12.
For the sequence LSLMLNYPNSADRYY [CBU 1157_108–122], the IC50 in assay [4] is 1040 nM. In assay [3], this sequence showed an SI-WCV vaccination of 4.83±2.44.
As to PWRYIRSFPILASSG [CBU 1157_63–77], the IC50 in assay [4] was determined as 34 nM. The SI-WCV vaccination in assay [3] is reported as 6.80±1.25.
Consider RDSFNNFDASIISKY [CBU 0383_69–83], for which the IC50 in assay [4] was found to be 507 nM. For the same sequence, the SI-WCV vaccination in assay [3] turned out to be 5.33±3.10.
In turn, RGPWRYIRSFPILAS [CBU115761-75] returned an SI-Infection in assay [1] of 0.57±0.34. For the same sequence, in assay [2], the SI-rAgs was found to be 7.17. Moreover, the SI-WCV vaccination in assay [3] is given as 1.87±1.67.
In assay [4], RLVGSFPAEERIGRT [CBU 1645_272–286] had an IC50 of 1860 nM. The SI-WCV vaccination in assay [3] is reported as 3.50±0.96.
As for RNNYRDSFNNFDASI [CBU038365-79], in assay [1], the SI-Infection came out at 3.25±2.21. Besides, the SI-rAgs in assay [2] is given as 3.06. In addition, the SI-WCV vaccination in assay [3] worked out at 5.57±1.79.
For RYHAPIYGAVHPRWL [CBU1157179-193] the same measures were 2.37±1.05, 4.37 and 1.97±0.75.
RYPNEPSRFEPKHID [CBU164510-24]: the SI-Infection in assay [1] was 1.56±1.29. Also, in assay [2], the SI-rAgs is recorded as 2.38. Further, the SI-WCV vaccination in assay [3] was found to be 2.03±1.27.
Turning to VHHYLVNHPEVLVEA [CBU 1910_43–57], the SI-Infection in assay [1] was 28.27±9.54. In addition, the SI-rAgs in assay [2] is 15.9. For the same sequence, in assay [5], the “IgG antibodies against recombinant proteins after peptide immunization alone” value is “did not generate detectable antibodies”. This sequence also registered an SI-WCV vaccination in assay [3] of 22.73±12.51.
YDSLTTPTASVCQSE [CBU 1645_196–210] registered a concentration for half-maximal inhibition (IC50) in assay [4] of 620 nM. Further, in assay [3], the SI-WCV vaccination worked out at 4.13±1.01.
Sequence YIWHFVDGHPIQNQW [CBU0383127-141] came in with an SI-Infection in assay [1] of 0.79±0.28. The SI-rAgs in assay [2] is 16.22. This sequence registered an SI-WCV vaccination in assay [3] of 1.33±1.43.
As for YVYDSLTTPTASVCQ [CBU1645194-208], in assay [1], the SI-Infection is reported as 0.43±0.17. Also, the SI-rAgs in assay [2] was determined as 6. This sequence also yielded an SI-WCV vaccination in assay [3] of 0.67±0.25.
